Measurements reported in ChEMBL document CHEMBL5046318, “Development of 6-Methanesulfonyl-8-nitrobenzothiazinone Based Antitubercular Agents” (ACS Med Chem Lett, 2022).
Converted amounts (≈) assume the structure as drawn.

How the values were obtained:
[1] = Metabolic stability in human liver microsomes assessed as intrinsic clearance at 1 uM preincubated for 10 mins followed by NADPH addition and further incubated upto 60 mins by LC-MS/MS analysis; format: ADME, Microsome; settings: time 70 min, read-out: CLH
[2] = Metabolic stability in mouse liver microsomes assessed as half life at 1 uM preincubated for 10 mins followed by NADPH addition and further incubated upto 60 mins by LC-MS/MS analysis; format: ADME, Microsome; settings: time 70 min
[3] = Metabolic stability in human liver microsomes assessed as half life at 1 uM preincubated for 10 mins followed by NADPH addition and further incubated upto 60 mins by LC-MS/MS analysis; format: ADME, Microsome; settings: time 70 min
[4] = Plasma protein binding in human; format: ADME, cell-free; settings: read-out: PPB (converted)
[5] = Metabolic stability in mouse liver microsomes assessed as intrinsic clearance at 1 uM preincubated for 10 mins followed by NADPH addition and further incubated upto 60 mins by LC-MS/MS analysis; format: ADME, Microsome; settings: time 70 min, read-out: CLH
[6] = test system: Mycobacterium tuberculosis; test: Antitubercular activity against Mycobacterium tuberculosis H37Rv assessed as bacterial growth inhibition incubated for […] by MABA assay; format: functional
[7] = target: T1, Decaprenylphosphoryl-beta-D-ribose oxidase (Mycobacterium tuberculosis (strain ATCC 25618 / H37Rv), UniProt P9WJF1); test: Inhibition of Mycobacterium tuberculosis H37Rv recombinant DprE1 expressed in Escherichia coli assessed as formation of resorufin using FPR as substrate by Amplex Red hydrogen/peroxidase coupled assay
T1 sequence (P9WJF1 whole entry): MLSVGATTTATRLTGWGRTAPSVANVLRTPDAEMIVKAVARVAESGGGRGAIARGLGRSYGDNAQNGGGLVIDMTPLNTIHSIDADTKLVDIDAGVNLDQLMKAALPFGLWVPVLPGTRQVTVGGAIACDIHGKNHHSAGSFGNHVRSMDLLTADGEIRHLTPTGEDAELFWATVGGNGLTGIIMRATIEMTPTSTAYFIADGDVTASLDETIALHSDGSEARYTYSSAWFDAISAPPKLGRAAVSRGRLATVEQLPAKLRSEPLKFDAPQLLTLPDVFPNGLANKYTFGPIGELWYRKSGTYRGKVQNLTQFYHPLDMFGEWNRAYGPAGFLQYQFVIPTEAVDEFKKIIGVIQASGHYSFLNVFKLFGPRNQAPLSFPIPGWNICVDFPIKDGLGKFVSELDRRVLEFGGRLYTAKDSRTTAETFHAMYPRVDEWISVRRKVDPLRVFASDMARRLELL

[8] = Thermodynamic solubility of compound at pH 7.4 aqueous phosphate buffer; format: physicochemical; settings: read-out: Therm_solubility

CS(=O)(=O)c1cc([N+](=O)[O-])c2sc(N3CCN(CC4CCCCC4)CC3)nc(=O)c2c1
CLint scaled at 1 µM [1]: 60.5 mL/min/kg | half-life at 1 µM [2]: 42.1 min | half-life at 1 µM [3]: 28.8 min | fraction unbound [4]: 0.025 | CLint scaled at 1 µM [5]: 129 mL/min/kg | MIC [6]: 0.01 µM (≈ 0.00467 µg/mL) | IC50 [7]: 0.05 µM

CS(=O)(=O)c1cc([N+](=O)[O-])c2sc(N3CCN(CC4CCCCC4)C4(CC4)C3)nc(=O)c2c1
solubility thermodynamic [8]: 0.7 µg/mL (≈ 1.42 µM) | CLint scaled at 1 µM [1]: 77 mL/min/kg | half-life at 1 µM [2]: 33.5 min | half-life at 1 µM [3]: 22.6 min | fraction unbound [4]: 0.016 | CLint scaled at 1 µM [5]: 163 mL/min/kg | MIC [6]: 0.04 µM (≈ 0.0197 µg/mL) | IC50 [7]: 3.9 µM

CS(=O)(=O)c1cc([N+](=O)[O-])c2sc(N3CCN(S(=O)(=O)C4CC4)CC3)nc(=O)c2c1
MIC [6]: 0.3 µM (≈ 0.142 µg/mL) | IC50 [7]: 7.1 µM

CS(=O)(=O)c1cc([N+](=O)[O-])c2sc(N3CCCN(S(=O)(=O)c4ccccc4)CC3)nc(=O)c2c1
MIC [6]: > 3.5 µM

CC(C)CN1CCCN(c2nc(=O)c3cc(S(C)(=O)=O)cc([N+](=O)[O-])c3s2)CC1
MIC [6]: 0.07 µM (≈ 0.0308 µg/mL) | IC50 [7]: 1.3 µM

CS(=O)(=O)c1cc([N+](=O)[O-])c2sc(N3CCN(Cc4cccs4)CC3)nc(=O)c2c1
MIC [6]: 0.25 µM (≈ 0.117 µg/mL)

CS(=O)(=O)c1cc([N+](=O)[O-])c2sc(N3CCN(C(=O)c4ccccc4)CC3)nc(=O)c2c1
MIC [6]: > 64 µM

CS(=O)(=O)c1cc([N+](=O)[O-])c2sc(N3CCN(CC4CCC(F)(F)CC4)CC3)nc(=O)c2c1
solubility thermodynamic [8]: 0.81 µg/mL (≈ 1.61 µM) | CLint scaled at 1 µM [1]: 45.1 mL/min/kg | half-life at 1 µM [2]: 59 min | half-life at 1 µM [3]: 38.6 min | fraction unbound [4]: 0.021 | CLint scaled at 1 µM [5]: 92.4 mL/min/kg | MIC [6]: 0.03 µM (≈ 0.0151 µg/mL) | IC50 [7]: 1.1 µM

CS(=O)(=O)c1cc([N+](=O)[O-])c2sc(N3CCN(CC4CCOCC4)CC3)nc(=O)c2c1
MIC [6]: 0.51 µM (≈ 0.239 µg/mL) | IC50 [7]: 10.3 µM

CS(=O)(=O)c1cc([N+](=O)[O-])c2sc(N3CCN(CC4CCC(C(F)(F)F)CC4)CC3)nc(=O)c2c1 (configuration not stated)
MIC [6]: 1.87 µM (≈ 1 µg/mL)

CS(=O)(=O)c1cc([N+](=O)[O-])c2sc(N3CCCN(S(=O)(=O)C4CC4)CC3)nc(=O)c2c1
MIC [6]: 0.94 µM (≈ 0.459 µg/mL) | IC50 [7]: 16.7 µM

CC(C)CCN1CCCN(c2nc(=O)c3cc(S(C)(=O)=O)cc([N+](=O)[O-])c3s2)CC1
MIC [6]: 0.49 µM (≈ 0.223 µg/mL)

CS(=O)(=O)c1cc([N+](=O)[O-])c2sc(N3CCN(CC4CCSCC4)CC3)nc(=O)c2c1
MIC [6]: 0.1 µM (≈ 0.0485 µg/mL)

CS(=O)(=O)c1cc([N+](=O)[O-])c2sc(N3CCCN(CC4CCCCC4)CC3)nc(=O)c2c1
MIC [6]: 0.07 µM (≈ 0.0336 µg/mL) | IC50 [7]: 1.1 µM

CS(=O)(=O)c1cc([N+](=O)[O-])c2sc(N3CCCN(CC4CCCC4)CC3)nc(=O)c2c1
MIC [6]: 0.15 µM (≈ 0.07 µg/mL) | IC50 [7]: 4.4 µM

CS(=O)(=O)c1cc([N+](=O)[O-])c2sc(N3CCN(CC4CCCCC4)C(=O)C3)nc(=O)c2c1
MIC [6]: 0.07 µM (≈ 0.0336 µg/mL)

CCS(=O)(=O)N1CCCN(c2nc(=O)c3cc(S(C)(=O)=O)cc([N+](=O)[O-])c3s2)CC1
MIC [6]: > 2 µM

CS(=O)(=O)c1cc([N+](=O)[O-])c2sc(N3CCN(C(=O)C4CCCCC4)CC3)nc(=O)c2c1
MIC [6]: 0.96 µM (≈ 0.461 µg/mL)

CCCCS(=O)(=O)N1CCN(c2nc(=O)c3cc(S(C)(=O)=O)cc([N+](=O)[O-])c3s2)CC1
MIC [6]: 0.09 µM (≈ 0.0442 µg/mL) | IC50 [7]: 1.4 µM

CS(=O)(=O)c1cc([N+](=O)[O-])c2sc(N3CCCN(S(=O)(=O)c4cccs4)CC3)nc(=O)c2c1
MIC [6]: > 3.5 µM

CS(=O)(=O)c1cc([N+](=O)[O-])c2sc(N3CCN(Cc4ccccc4)CC3)nc(=O)c2c1
MIC [6]: 0.21 µM (≈ 0.0967 µg/mL)

CS(=O)(=O)c1cc([N+](=O)[O-])c2sc(N3CCN(S(=O)(=O)c4cccs4)CC3)nc(=O)c2c1
MIC [6]: 108 µM (≈ 55.8 µg/mL)

CS(=O)(=O)c1cc([N+](=O)[O-])c2sc(N3CCN(S(=O)(=O)c4ccccc4)CC3)nc(=O)c2c1
MIC [6]: 0.33 µM (≈ 0.168 µg/mL)

CC(C)CN1CCN(c2nc(=O)c3cc(S(C)(=O)=O)cc([N+](=O)[O-])c3s2)CC12CC2
MIC [6]: 0.17 µM (≈ 0.0769 µg/mL)

CCS(=O)(=O)N1CCN(c2nc(=O)c3cc(S(C)(=O)=O)cc([N+](=O)[O-])c3s2)CC1
MIC [6]: 0.26 µM (≈ 0.12 µg/mL) | IC50 [7]: 6.7 µM

CCCCS(=O)(=O)N1CCCN(c2nc(=O)c3cc(S(C)(=O)=O)cc([N+](=O)[O-])c3s2)CC1
MIC [6]: > 2 µM

CS(=O)(=O)c1cc([N+](=O)[O-])c2sc(N3CCCN(Cc4ccccc4)CC3)nc(=O)c2c1
MIC [6]: 0.48 µM (≈ 0.228 µg/mL)

CCCCCN1CCCN(c2nc(=O)c3cc(S(C)(=O)=O)cc([N+](=O)[O-])c3s2)CC1
MIC [6]: 0.49 µM (≈ 0.223 µg/mL)

O=c1nc(N2CCN(CC3CCCCC3)CC2)sc2c([N+](=O)[O-])cc(C(F)(F)F)cc12 [MACOZINONE]
solubility thermodynamic [8]: < 0.01 µg/mL | CLint scaled at 1 µM [1]: 28.1 mL/min/kg | half-life at 1 µM [2]: 31.5 min | half-life at 1 µM [3]: 62.1 min | fraction unbound [4]: < 0.001 | CLint scaled at 1 µM [5]: 174 mL/min/kg
